Molecules are shown by their SMILES. Where two headings read alike, the source gives them in different places.

In one test the test system is Ps. cepacia 23. As to the kind of experiment: in vitro antibacterial activity, agar plate dilution method (MIC). It counts as cell-based, Pseudomonas cepacia. The conditions noted are these: Burkholderia cepacia, 16 h; Ps. cepacia 23; 10^6 CFU/ml; read-out: Minimum Inhibitory Concentration (MIC). In short, it runs like this: (§1)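 Plate dilution on Mueller Hinton agar with various antibiotic concentrations. Inoculum size was 10^6 CFU/ml, incubation 16 hours at 37° C.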

For another test, the system named is E. coli CSH(RE45). Briefly: microbe, parasite or virus in culture. It counts as cell-based. The conditions noted are these: Escherichia coli, 16 h, read-out: Minimum Inhibitory Concentration (MIC), *E. coli CSH(RE45), lactamase-producing strain; 10^6 CFU/ml. Put shortly:
as §1

Another test concerns E. coli CSH2 (RK1). As to the kind of experiment: microbe, parasite or virus in culture. It counts as cell-based. The conditions noted are these: Escherichia coli, 16 h, read-out: Minimum Inhibitory Concentration (MIC), *E. coli CSH2 (RK1), lactamase-producing strain; 10^6 CFU/ml. Put shortly: as §1
The subject of another test is A. calcoaceticus No. 4. Briefly: in vitro antibacterial activity, agar plate dilution method (MIC). It counts as cell-based, Acinetobacter calcoaceticus. To be noted: Acinetobacter calcoaceticus, NO.4, 16 h, 10^6 CFU/ml. In short, it runs like this: as §1
The subject of a further test is K. pneumoniae No. 42. Described as above. It counts as cell-based. To be noted: Klebsiella pneumoniae, NO.42, 16 h, read-out: Minimum Inhibitory Concentration (MIC), *K. pneumoniae No. 42, lactamase-producing strain; 10^6 CFU/ml. Put shortly: as §1
Another test deals with K. pneumoniae PCI-602. Described as above. It counts as cell-based. To be noted: Klebsiella pneumoniae, PCI602, 16 h, 10^6 CFU/ml. Put shortly:
as §1

The next test concerns P. vulgaris No. 33. The test is described as above. It counts as cell-based. To be noted: Proteus vulgaris, NO.33, 16 h, read-out: Minimum Inhibitory Concentration (MIC), *P. vulgaris No. 33, lactamase-producing strain; 10^6 CFU/ml. In short, it runs like this: as §1
A further test deals with E. cloacae 963. The description is as above. It counts as cell-based. To be noted: 10^6 CFU/ml. Put shortly:
as §1

The test system of the next test is K. oxytoca GN10650. The test is described as above. To be noted: Klebsiella oxytoca, GN10650, 16 h, read-out: Minimum Inhibitory Concentration (MIC), *K. oxytoca GN10650, lactamase-producing strain; 10^6 CFU/ml. It counts as cell-based. Put shortly:
as §1

For a further test, the system named is E. cloacae Nek 39. The test is described as above. It counts as cell-based. To be noted: Enterobacter cloacae, NEK39, 16 h, read-out: Minimum Inhibitory Concentration (MIC), *E. cloacae Nek 39, lactamase-producing strain; 10^6 CFU/ml. Put shortly: as §1
A further test concerns S. marcescens IAM 1184. The description is as above. It counts as cell-based. The conditions noted are these: Serratia marcescens, IAM1184, 16 h, S. marcescens IAM 1184; 10^6 CFU/ml; read-out: Minimum Inhibitory Concentration (MIC). Put shortly:
as §1

The next test concerns E. coli NIHJ JC2. The description is as above. It counts as cell-based. To be noted: Escherichia coli, NIHJJC2, 16 h, read-out: Minimum Inhibitory Concentration (MIC), E. coli NIHJ JC2, 10^6 CFU/ml, 37° C. Put shortly:
as §1

Another test concerns S. aureus 209P NIHJ-JC1. Described as above. It counts as cell-based. The conditions noted are these: Staphylococcus aureus, 16 h, S. aureus 209P NIHJ-JC1; 10^6 CFU/ml, 37° C., 16 hours; read-out: Minimum Inhibitory Concentration (MIC). In short, it runs like this:
as §1

Another test has as its system S. marcescens No. 16-2. The test is described as above. It counts as cell-based. To be noted: Serratia marcescens, NO.162, 16 h. Put shortly:
as §1

For the next test, the system named is E. coli GN5482. The test is described as above. The conditions noted are these: Escherichia coli, GN5482, 16 h. It counts as cell-based. Put shortly: as §1
The subject of another test is P. vulgaris HX-19. The test is described as above. It counts as cell-based. To be noted: Proteus vulgaris, HX19, 16 h, read-out: Minimum Inhibitory Concentration (MIC). Put shortly:
as §1

A further test deals with M. morganii GN5407. The description is as above. It counts as cell-based. The conditions noted are these: Morganella morganii, GN5407, 16 h, read-out: Minimum Inhibitory Concentration (MIC), *M. morganii GN5407, lactamase-producing strain; 10^6 CFU/ml. In short, it runs like this:
as §1

In a further test the test system is Ps. aeruginosa AK 109. The description is as above. It counts as cell-based, Pseudomonas aeruginosa. The conditions noted are these: Pseudomonas aeruginosa, AK109, 16 h. Put shortly: as §1
The test system of another test is Ps. aeruginosa AKR17. The description is as above. The conditions noted are these: Pseudomonas aeruginosa, AKR17, 16 h. It counts as cell-based, Pseudomonas aeruginosa. In short, it runs like this:
as §1

The next test relates to Ps. aeruginosa IF03445. Described as above. It counts as cell-based, Pseudomonas aeruginosa. The conditions noted are these: Pseudomonas aeruginosa, IF03445, 16 h, read-out: Minimum Inhibitory Concentration (MIC), Ps. aeruginosa IF03445; 10^6 CFU/ml. In short, it runs like this: as §1
Setting [1] is: read-out: Minimum Inhibitory Concentration (MIC), A. calcoaceticus No. 4.
The mark [2] stands for this setting: read-out: Minimum Inhibitory Concentration (MIC), K. pneumoniae PCI-602.
Setting [3] is: Enterobacter cloacae, 16 h, E. cloacae 963, read-out: Minimum Inhibitory Concentration (MIC).
The mark [4] stands for this setting: read-out: Minimum Inhibitory Concentration (MIC).
[5] abbreviates: read-out: Minimum Inhibitory Concentration (MIC), *E. coli GN5482, lactamase-producing strain, 10^6 CFU/ml.
Setting [6] is: K. pneumoniae PCI-602, read-out: Minimum Inhibitory Concentration (MIC).
Setting [7] is: Enterobacter cloacae, 963, 16 h, read-out: Minimum Inhibitory Concentration (MIC), E. cloacae 963.
Setting [8] is: read-out: Minimum Inhibitory Concentration (MIC), *S. marcescens No. 16-2, lactamase-producing strain, 10^6 CFU/ml.
The mark [9] stands for this setting: read-out: Minimum Inhibitory Concentration (MIC), Ps. aeruginosa AK 109, 10^6 CFU/ml.

On to `Nc1nc(/C(=N/OC2(C(=O)O)CC2)C(=O)N[C@@H]2C(=O)N3C(C(=O)O)=C(CSc4ncc(-c5ccc(O)c(O)c5)o4)CS[C@H]23)cs1` [Ex. 66, disodium 7β-[2-(2-aminothiazol-4-yl)-2-(1-carboxylate-1-cyclopropoxyimino)acetamido]-3-[5-(3,4-dihydroxyphenyl)oxazol-2-yl]thiomethyl-3-cephem-4-carboxylate], for which the MIC is less than 0.006 µg/mL with Ps. cepacia 23; 0.05 µg/mL with E. coli CSH(RE45); 0.0125 µg/mL in the test with E. coli CSH2 (RK1); 0.1 µg/mL with A. calcoaceticus No. 4 (setting [1]); 0.1 µg/mL in the test with K. pneumoniae No. 42; less than 0.006 µg/mL in the test on K. pneumoniae PCI-602 (setting [2]). The MIC with P. vulgaris No. 33 is 0.025 µg/mL; in the test on E. cloacae 963 (setting [3]), 0.2 µg/mL; in the test with K. oxytoca GN10650 it was 0.1 µg/mL; in the test with E. cloacae Nek 39 it was 0.1 µg/mL; in the test on S. marcescens IAM 1184, 0.05 µg/mL; in the test on E. coli NIHJ JC2 it was 0.78 µg/mL. The MIC in the test with S. aureus 209P NIHJ-JC1 stood at 25 µg/mL; with S. marcescens No. 16-2 (setting [4]), 3.12 µg/mL; with E. coli GN5482 (setting [5]), 1.56 µg/mL; in the test on P. vulgaris HX-19 it was 0.0125 µg/mL; in the test on M. morganii GN5407, 0.1 µg/mL; with Ps. aeruginosa AK 109 (setting [4]), 0.39 µg/mL. In addition, the MIC in the test on Ps. aeruginosa AKR17 (setting [4]) was found to be 3.12 µg/mL; in the test on Ps. aeruginosa IF03445, 0.78 µg/mL.
Take `CC(C)(ON=C(C(=O)NC1C(=O)N2C(C(=O)O)=C(CSc3nc(-c4ccc(O)c(O)c4)c(CC(=O)O)s3)CSC12)c1csc(N)n1)C(=O)O` (stereo not drawn) [Example 59 (I), trisodium 7β-[2-(2-aminothiazol-4-yl)-2-(1-carboxylate-1-methylethoxyimino)acetamido]-3-[4-(3,4-dihydroxyphenyl)-5-carboxylatemethylthiazol-2yl]thiomethyl-3-cephem-4-carboxylate]: the MIC with Ps. cepacia 23 was less than 0.006 µg/mL; in the test with E. coli CSH(RE45) it was 0.05 µg/mL; in the test with E. coli CSH2 (RK1) it was 0.025 µg/mL; in the test with A. calcoaceticus No. 4 (A. calcoaceticus No. 4, read-out: Minimum Inhibitory Concentration (MIC)), 0.2 µg/mL; in the test on K. pneumoniae No. 42, 0.2 µg/mL; with K. pneumoniae PCI-602 (setting [6]), 0.0125 µg/mL. Moreover, the MIC in the test with P. vulgaris No. 33 came to 0.1 µg/mL; in the test with E. cloacae 963 (setting [7]) it was 0.39 µg/mL; with K. oxytoca GN10650, 0.1 µg/mL; with E. cloacae Nek 39 it was 0.2 µg/mL; with S. marcescens IAM 1184, 0.2 µg/mL; in the test with E. coli NIHJ JC2, 1.56 µg/mL. Besides, the MIC with S. aureus 209P NIHJ-JC1 was 100 µg/mL; with S. marcescens No. 16-2 (setting [8]), 1.56 µg/mL; in the test with E. coli GN5482 (setting [5]) it was 1.56 µg/mL; in the test on P. vulgaris HX-19 (P. vulgaris HX-19, 10^6 CFU/ml), 0.025 µg/mL; in the test with M. morganii GN5407, 0.1 µg/mL; with Ps. aeruginosa AK 109 (setting [9]) it was 1.56 µg/mL. For the same compound, the MIC in the test on Ps. aeruginosa AKR17 (read-out: Minimum Inhibitory Concentration (MIC), Ps. aeruginosa AKR17, 10^6 CFU/ml) stood at 1.56 µg/mL; in the test with Ps. aeruginosa IF03445, 1.56 µg/mL.
In the case of `Nc1nc(C(=NOC2(C(=O)O)CC2)C(=O)NC2C(=O)N3C(C(=O)O)=C(CSc4nc(-c5ccc(O)c(O)c5)c(CC(=O)O)s4)CSC23)cs1` (stereo not drawn) [Example 60 (I), trisodium 7β-[2-(2-aminothiazol-4-yl)-2-(1-carboxylate-1-cyclopropoxyimino)acetamido]-3-[4-(3,4-dihydroxyphenyl)-5-carboxylatemethylthiazol-2-yl]thiomethyl-3-cephem-4-carboxylate], the MIC was 0.0125 µg/mL with Ps. cepacia 23; 3.12 µg/mL in the test with E. coli CSH(RE45); 0.05 µg/mL in the test on E. coli CSH2 (RK1); 0.78 µg/mL with A. calcoaceticus No. 4 (setting [1]); 0.39 µg/mL in the test on K. pneumoniae No. 42; 0.025 µg/mL with K. pneumoniae PCI-602 (setting [6]). In addition, the MIC with P. vulgaris No. 33 is 0.1 µg/mL; with E. cloacae 963 (setting [7]), 0.78 µg/mL; with K. oxytoca GN10650 it was 0.39 µg/mL; in the test on E. cloacae Nek 39, 0.39 µg/mL; in the test with S. marcescens IAM 1184, 0.2 µg/mL; in the test on E. coli NIHJ JC2 it was 1.56 µg/mL. Besides, the MIC in the test with S. aureus 209P NIHJ-JC1 came out at 50 µg/mL; in the test with S. marcescens No. 16-2 (setting [4]) it was 3.12 µg/mL; in the test on E. coli GN5482 (setting [4]), 3.12 µg/mL; in the test on P. vulgaris HX-19 (P. vulgaris HX-19, 10^6 CFU/ml), 0.025 µg/mL; in the test with M. morganii GN5407 it was 0.39 µg/mL; in the test on Ps. aeruginosa AK 109 (setting [9]), 1.56 µg/mL. Further, the MIC in the test on Ps. aeruginosa AKR17 (setting [4]) turned out to be 3.12 µg/mL; with Ps. aeruginosa IF03445, 1.56 µg/mL.
Take `CC(=O)Oc1ccc(-c2nc(SCC3=C(C(=O)O)N4C(=O)C(NC(=O)C(=NOC5(C(=O)O)CC5)c5csc(N)n5)C4SC3)sc2CC(=O)O)cc1OC(C)=O` (centres unmarked) [Example 60 (II), trisodium 3-[4-(3,4-diacetoxyphenyl)-5-carboxylate-methylthiazol-2-yl]thiomethyl-78-[2-(2-aminothiazol-4-yl)-2-(1-carboxylate-1-cyclopropoxyimino)acetamido]-3-cephem-4-carboxylate]: the MIC with Ps. cepacia 23 is less than 0.006 µg/mL; with E. coli CSH(RE45), 3.12 µg/mL; in the test on E. coli CSH2 (RK1) it was 0.0125 µg/mL; in the test on A. calcoaceticus No. 4 (setting [1]), 0.1 µg/mL; in the test with K. pneumoniae No. 42, 0.1 µg/mL; in the test with K. pneumoniae PCI-602 (setting [2]) it was less than 0.006 µg/mL. In addition, the MIC with P. vulgaris No. 33 was determined as 0.025 µg/mL; with E. cloacae 963 (setting [3]), 0.2 µg/mL; with K. oxytoca GN10650, 0.1 µg/mL; with E. cloacae Nek 39, 0.2 µg/mL; in the test with S. marcescens IAM 1184 it was 0.05 µg/mL; with E. coli NIHJ JC2, 0.78 µg/mL. Moreover, the MIC is 25 µg/mL with S. aureus 209P NIHJ-JC1; 0.78 µg/mL in the test on S. marcescens No. 16-2 (setting [8]); 0.78 µg/mL with E. coli GN5482 (setting [5]); less than 0.006 µg/mL with P. vulgaris HX-19 (P. vulgaris HX-19, 10^6 CFU/ml); 0.1 µg/mL in the test with M. morganii GN5407; 1.56 µg/mL with Ps. aeruginosa AK 109 (setting [9]). In addition, the values for the MIC in the test with Ps. aeruginosa AKR17 (setting [4]) and in the test with Ps. aeruginosa IF03445 were 3.12 µg/mL and 0.78 µg/mL, respectively.

These data come from patent US5061794A, “Cephalosporin derivatives, and antibacterial agents” (priority 1986, dated 1991).
